Data on 10 compounds can be found in patent publication US7671054B1, “Reverse-turn mimetics and method relating thereto” (Choongwae Pharma Corporation, priority 2001, dated 2010).

SMILES strings stand for the structures. “Also recorded” adds a separate entry of the source.

Data set [1] concerns TCF4/β-catenin transcription (TOPFlash) in SW480 cells. Nature of the data set: Reporter gene assay (TOPFlash luciferase). Format: cell-based. To be noted: Homo sapiens, SW480, Table 10; prodrug compounds, reporter gene assay TopF; read-out: RGA, TopF IC50. The method, boiled down: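 SW480 cells transiently co-transfected with TOPFlash and pRL-null (4:1 µg) using Superfect, then reseeded at 3×10^4 cells/well and incubated overnight at 37 °C. Compound treatment lasted 24 h before luciferase read-out.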

Data set [2] has as its system HCT116 cells. Nature of the data set: MTS cytotoxicity test. Format: cell-based. As to conditions: Homo sapiens, HCT-116, Table 10, prodrug compounds, 24 hours treatment, read-out: MTS, HCT116 (uM) LD50. How it is done:
(§1) SW480 or HCT116 cells were placed into 96 well microplate (10^4cells/well) and incubated for 24 hours at 37° C. The cells were treated with TCF4 compound at various concentrations for 24 hours. 20 μl of MTS solution (Promega) was added into each well and incubated for 2 hours at 37° C. Cell viability was measured by reading the absorbance at 490 nm using microplate reader (Molecular Device) and cytotoxicity of a compound at each concentration was calculated.
A general note: Tetrazolium dyes change colour on reduction, which living cells bring about.

Data set [3] concerns SW480 cells. The data set can be described thus: MTS cytotoxicity test. Format: cell-based. As to conditions: Homo sapiens, Table 10, prodrug compounds, 24 hours treatment, read-out: MTS, SW480 (uM) LD50. How it is done: as §1
Data set [4] relates to HCT116 cells. The data set can be described thus: Growth inhibition assay (MTS). Format: cell-based. To be noted: Homo sapiens, HCT-116; Table 10; prodrug compounds, HCT116 cells, growth inhibition; read-out: MTS, HCT116 (uM) GI50. The method in brief: (§2)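 Cells seeded at 10^4 per well, grown 24 h at 37° C, then exposed to compound at various concentrations for 48 hours. MTS added for 2 h; absorbance at 490 nm gave viability, with cytotoxicity calculated per concentration against pre-treatment reading.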

In data set [5] the test system is SW480 cells. The data set can be described thus: Growth inhibition assay (MTS). Format: cell-based. To be noted: Homo sapiens; Table 10; prodrug compounds, SW480 cells, growth inhibition; read-out: MTS, SW480 (uM) GI50. The method, boiled down:
as §2

The test system of data set [6] is survivin promoter in SW480 cells. The data set can be described thus: Survivin luciferase reporter in SW480 cells. Format: cell-based. As to conditions: for IC50: Homo sapiens, SW480, Table 10, prodrug compounds, reporter gene assay Survivin, read-out: RGA, Survivin IC50. For orientation: Reporter assays use an easily measured gene product as a stand-in for the process of interest.

Data set [7] has as its system SW480 cells. Nature of the data set: Soft agar assay, Compound A with 5-FU. Format: cell-based. As to conditions: for LD50, soft agar assay: 8 days. How it is done: Compound A solution and upper layer solution containing agarose were mixed, and SW480 cells were added and solidified. Plates were incubated 37° C. at CO2 incubator for 8 days after solidification at room temperature for 30 min, and colonies were counted under microscope (FIG. 19).

Data set [8] concerns min mice (polyp formed in small intestine and colon). Nature of the data set: Min mouse model. Format: in vivo. To be noted: about 300 mpk. How it is done: Selected compounds of the present invention (Compound B and Compound C) were evaluated in the min mouse model to evaluate their efficacy as anti-cancer agents.
The min mouse model is a widely used model to test for this type of efficacy. The numbers of polyp formed in small intestine and colon of these mice after various treatments were measured (Table 7).

Another data set deals with HUVEC. The data set can be described thus: Tube formation assay (In Vitro Angiogenesis Assay Kit). Format: cell-based. To be noted: 0.1-10 μM, 12 h. How it is done: Tube formation assay was performed using an In Vitro Angiogenesis Assay Kit (Chemicon International, Inc., Temecula, Calif., USA). Briefly, solid gels were prepared according to the manufacturer's manual on a 96-well tissue culture plate. HUVEC (1×10^5 cells/ml) in HuMedia EG-2 medium containing […] were seeded 100 μl per well onto the surface of the solid gel, ECMatrix™. The cells were incubated with vehicle control, Compound E at 0.1 μM, 0.3 μm, 1.0 μM, 3 μM, and 10 μM, or Fumagilin at 10 μM for 12 h at 37° C. in a CO2 incubator. Tube formation was observed under an inverted light microscope at ×100 magnification. Microscopic fields were photographed with a digital camera.

The test system of data set [9] is IL-2 production in Jurkat cells. Nature of the data set: PMA/ionomycin-induced IL-2 production in Jurkat cells. Format: cell-based. To be noted: Homo sapiens, 6 hr. How it is done:
PMA/lonomycin-induced IL-2 production in Jurkat cells: Jurkat cells were seeded into 96 well tissue culture plates (1×10^5 cells/well) and treated with the test compound, Compound F, and further incubated for 60 min at 37° C. in a CO2 incubator. Stimulant (10 ng/ml PMA and 1 μg/ml ionomycin) was added into each well, and the cells were further incubated for 6 hr at 37° C. in a CO2 incubator. Supernatant was collected and concentration of IL-2 was determined with the ELISA kit (OptEIA, BD).

Data set [10] concerns TNF-α production in THP-1 cells. Nature of the data set: LPS-induced TNF-α production in THP-1 cells. Format: cell-based. As to conditions: Homo sapiens, LPS 100 ng/ml, 6 hr. How it is done:
LPS-induced TNF-α production in THP-1 cells: THP-1 cells were incubated with 200 nM PMA for 24 hr. Cells were harvested with trypsin and seeded into 96 well tissue culture plates (2×10^4 cells/well). The test compound, Compound F, was added to each well followed by LPS (100 ng/ml). The cells were further incubated for 6 hr at 37° C. in a CO2 incubator. Media was collected and concentration of TNF-α was determined with the ELISA kit (OptEIA, BD).

The test system of data set [11] is S.D. rats with Mycobacterium butyricum-induced polyarthritis. Nature of the data set: Rat adjuvant-induced arthritis model. Format: in vivo. How it is done: To induce polyarthritis, six-week-old male S.D. rats received intradermal injection (base of tail) of 100 μl of Mycobacterium butyricum (Cat. No. 264010, Difco) in mineral oil (5 mg/ml) on Day 0. The test compound, Compound F, was given once daily at Day 1, 2, 3, 4, 5, 8, 10, 12 and 14 by oral gavage. […] The paw thickness was measured with digital caliper (Mitutoyo, Japan) and the arthritic index was accessed (FIG. 21).

Data set [12] relates to TNF-α in serum of ICR mice. Nature of the data set: Serum TNF-α induced by intraperitoneal LPS. Format: in vivo, mouse. To be noted: perorally 60 min prior to LPS, blood 90 min after. How it is done: Male young ICR mice received intraperitoneal injection of LPS (E. coli O111:B4). Compound F was administered perorally 60 min prior to LPS challenge and blood was drawn 90 min subsequent to challenge. Vehicle control mice received the pharmacological carrier used for Compound F only. Concentration of TNF-α in the serum was determined by ELISA method. […] For reference, dexamethasone (Dex, Sigma) was treated (15 mg/kg, oral).

Data set [13] has as its system NF-κB in stably transfected A549 cells. The data set can be described thus: NF-κB reporter assay. Format: cell-based. To be noted: PMA 10 ng/ml, 6 hr. How it is done: Cells were transferred into each well of 96 well white opaque plates (1×10^4 cells/well/50 μl) and incubated 24 hr at 37° C. in 5% CO2 incubator. The test compound, Compound F, was added to each well, and 1 hr later, phorbol 12-myristate 13-acetate (PMA) (10 ng/ml) was added into each well. Plates were incubated further for 6 hr at 37° C. in 5% CO2 incubator. One hundred microliter of Dual-glo FireFly substrate (Promega) was added and incubated for 10 min. Luminescence of each well was measured with a luminometer (Victor II) (FIG. 23).

Consider `CN1CC(=O)N2[C@@H](Cc3ccc(OP(=O)(O)O)cc3)C(=O)N(Cc3cccc4cccnc34)C[C@@H]2N1C(=O)NCc1ccccc1` [Compound 9], for which the IC50 in [1] was 9.6 µM; in the data set with HCT116 cells [2], more than 50 µM; with SW480 cells [3], more than 50 µM; in [6], 6 µM. Also, the concentration for 50% growth inhibition (GI50) (commonly the concentration that inhibits growth by half) is 14.7 µM with HCT116 cells [4] and 7.6 µM in the data set on SW480 cells [5].

As for `CCCN1CC(=O)N2[C@@H](Cc3ccc(OP(=O)(O)O)cc3)C(=O)N(Cc3cccc4cccnc34)C[C@@H]2N1C(=O)NCc1ccccc1` [Compound 10], the IC50 came out at 2.8 µM in [1], 7 µM in the data set on HCT116 cells [2], 0.4 µM with SW480 cells [3] and 1.7 µM in data set [6]. Besides, the GI50 in the data set on HCT116 cells [4] was 0.8 µM; in the data set with SW480 cells [5] it was 0.9 µM.

For `CN1CC(=O)N2[C@@H](Cc3ccc(OP(=O)(O)O)cc3)C(=O)N(Cc3ccc4ncsc4c3)C[C@@H]2N1C(=O)NCc1ccccc1` [Compound 11], the IC50 in data set [1] was 10.3 µM; with HCT116 cells [2], more than 50 µM; in the data set on SW480 cells [3], more than 50 µM; in [6] it was 6.7 µM. Moreover, the GI50 came to 6.3 µM in the data set with HCT116 cells [4] and 6.5 µM with SW480 cells [5].

Turning to `C=CCN1CC(=O)N2[C@@H](Cc3ccc(OP(=O)(O)O)cc3)C(=O)N(Cc3cccc4c3N(C)CCO4)C[C@@H]2N1C(=O)NCc1ccccc1` [Compound 12], the IC50 in data set [1] is 1 µM; in the data set with HCT116 cells [2] it was 19.3 µM; with SW480 cells [3], more than 50 µM; in data set [6], 0.7 µM. The GI50 in the data set on HCT116 cells [4] is 1.2 µM; in the data set on SW480 cells [5] it was 1 µM.

Turning to `CN(C)c1cc(CN2C[C@H]3N(C(=O)CN(C)N3C(=O)NCc3ccccc3)[C@@H](Cc3ccc(OP(=O)(O)O)cc3)C2=O)ccc1Cl` [Compound 13], the IC50 in data set [1] amounted to 1.8 µM; in the data set with HCT116 cells [2], 20 µM; in the data set with SW480 cells [3], 21.1 µM; in data set [6] it was 0.9 µM. Besides, the GI50 with HCT116 cells [4] stood at 1.7 µM; in the data set with SW480 cells [5], 2.3 µM.

With `CN(C)c1cc(F)c(F)cc1CN1C[C@H]2N(C(=O)CN(C)N2C(=O)NCc2ccccc2)[C@@H](Cc2ccc(OP(=O)(O)O)cc2)C1=O` [Compound 14], the IC50 in data set [1] was 1.7 µM; in the data set with HCT116 cells [2], 16 µM; in the data set with SW480 cells [3], 21.1 µM; in data set [6] it was 1.2 µM. The values for the GI50 in the data set with HCT116 cells [4] and in the data set on SW480 cells [5] were 2.1 µM and 2.3 µM, respectively.

As for `CN1CC(=O)N2[C@@H](Cc3ccc(O)cc3)C(=O)N(Cc3cccc4ccccc34)C[C@@H]2N1C(=O)NCc1ccccc1` [Compound A], the “synergy with 5-FU in soft agar assay” value with SW480 cells [7] was “synergism of anti-cancer activity; also recorded: synergy”. The “LD50, soft agar assay” value with SW480 cells [7] (in combination with 0 μM 5-FU) stood at 76 µM; with SW480 cells [7] (in combination with 1 μM 5-FU), 30 µM; with SW480 cells [7] (in combination with 4 μM 5-FU) it was 2 µM. The “survivin luciferase reporter activity” value in data set [6] (SW480 cells, various concentrations) is “inhibit expression of survivin; also recorded: inhibit the activity of a survivin luciferase reporter”.

In the case of `CN1CC(=O)N2[C@@H](Cc3ccc(O)cc3)C(=O)N(Cc3cccc4cccnc34)C[C@@H]2N1C(=O)NCc1ccccc1` [Compound B], the “number of polyp compared to vehicle control mice” value in data set [8] is “reduce the number of polyp in min mice”.

For `C=CCN1CC(=O)N2[C@@H](Cc3ccc(O)cc3)C(=O)N(Cc3ccccc3)C[C@@H]2N1C(=O)NCc1ccccc1` [Compound E], the tube formation entry in the data set on HUVEC is on record as “inhibited tube formation in a dose-dependent manner”.

As for `CC(C)C[C@H]1C(=O)N(CCC(c2ccccc2)c2ccccc2)C[C@H]2N1C(=O)CN(C)N2C(=O)NCc1ccccc1` [Compound F], the IC50 in data set [9] was 8.48 µM; in data set [10], 7.08 µM. Moreover, the “increase of paw thickness” value in data set [11] (oral 30 mg/kg) and in data set [11] (oral 100 mg/kg) was “significantly ameliorated the increase of paw thickness” throughout. In addition, the “LPS-induced TNF-α in serum” value in data set [12] is “reduces LPS-induced TNF-α production in serum in a dose-dependent manner”. In addition, the NF-κB reporter activity result in data set [13] was “effective in inhibiting NF-κB transcription”.
